The source made the active and inactive calls.
Key:
[1] = cytotoxicity in HEK-293T cells, dose response, cytotoxicity control for TCR NF-kB inhibitor project, luminescence, T-cell screen hits (AID 489026); type: functional, cell-based;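 further: cells exposed to compound about 14 hours before the viability readout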
[2] = Counterscreen for activators of the function of SWI/SNF related, matrix associated, actin dependent regulator of chromatin, subfamily a, member 2 (SMARCA2, BRM): Luminescence-based cell-based high throughput dose response assay to identify non-selective compounds using the VP16 reporter assay.; type: functional
HEK293 = test: HEK cell cytotoxicity by LDH release, dose response, cytotoxicity control for IDE activator project, fluorescence, HEK cells (AID 588440); type: functional, cell-based; conditions: Homo sapiens;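 further: cytotoxicity by LDH release measuring loss of membrane integrity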
Insulin-degrading enzyme = target: T1, Insulin-degrading enzyme (Homo sapiens, UniProt P14735); test: activators of endogenous IDE in HEK cells, dose response, cell-based, fluorescence polarization (AID 588439); type: functional
T1 sequence (P14735 whole entry): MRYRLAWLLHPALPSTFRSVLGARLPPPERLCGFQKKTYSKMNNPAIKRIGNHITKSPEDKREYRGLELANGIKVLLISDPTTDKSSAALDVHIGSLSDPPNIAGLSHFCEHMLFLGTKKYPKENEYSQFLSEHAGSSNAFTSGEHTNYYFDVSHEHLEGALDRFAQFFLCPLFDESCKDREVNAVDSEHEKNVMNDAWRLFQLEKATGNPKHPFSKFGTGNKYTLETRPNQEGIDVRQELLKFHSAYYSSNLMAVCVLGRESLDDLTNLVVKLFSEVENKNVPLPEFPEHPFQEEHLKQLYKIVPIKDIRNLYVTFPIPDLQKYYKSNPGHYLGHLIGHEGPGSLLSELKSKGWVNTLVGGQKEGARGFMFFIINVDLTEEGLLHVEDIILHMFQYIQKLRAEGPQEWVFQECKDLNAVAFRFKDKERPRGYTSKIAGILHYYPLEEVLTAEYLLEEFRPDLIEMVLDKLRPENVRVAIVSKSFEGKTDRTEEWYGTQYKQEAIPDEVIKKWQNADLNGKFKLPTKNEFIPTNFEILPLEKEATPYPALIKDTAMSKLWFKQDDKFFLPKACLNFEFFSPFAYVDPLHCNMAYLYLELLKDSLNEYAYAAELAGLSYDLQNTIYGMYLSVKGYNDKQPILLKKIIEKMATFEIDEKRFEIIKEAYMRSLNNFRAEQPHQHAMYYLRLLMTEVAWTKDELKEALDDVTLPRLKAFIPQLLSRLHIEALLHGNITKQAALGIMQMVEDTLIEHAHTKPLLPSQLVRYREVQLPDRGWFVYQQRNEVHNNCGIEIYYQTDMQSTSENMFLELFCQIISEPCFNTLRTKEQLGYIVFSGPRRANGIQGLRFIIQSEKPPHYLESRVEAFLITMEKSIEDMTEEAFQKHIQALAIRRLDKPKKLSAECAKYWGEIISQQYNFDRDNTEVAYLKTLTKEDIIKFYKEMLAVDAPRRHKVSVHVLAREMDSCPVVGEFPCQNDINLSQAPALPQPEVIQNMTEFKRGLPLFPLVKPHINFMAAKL

[3] = target: Tyrosyl-DNA phosphodiesterase 2 (Homo sapiens, UniProt O95551); test: human TDP2 enzyme inhibitors, dose response, biochemical, epi absorbance, IC50 (AID 743297)
Streptokinase A = target: T2, Streptokinase A (Streptococcus pyogenes serotype M1, UniProt P10520); test: S. pyogenes streptokinase expression inhibitors, potency, dose response, plasminogen activation absorbance, OD405 (AID 1914); type: functional, Streptococcus pyogenes M1 GAS;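 further: secreted streptokinase activity via plasminogen activation per viability signal from cell pellet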
T2 sequence (P10520 whole entry): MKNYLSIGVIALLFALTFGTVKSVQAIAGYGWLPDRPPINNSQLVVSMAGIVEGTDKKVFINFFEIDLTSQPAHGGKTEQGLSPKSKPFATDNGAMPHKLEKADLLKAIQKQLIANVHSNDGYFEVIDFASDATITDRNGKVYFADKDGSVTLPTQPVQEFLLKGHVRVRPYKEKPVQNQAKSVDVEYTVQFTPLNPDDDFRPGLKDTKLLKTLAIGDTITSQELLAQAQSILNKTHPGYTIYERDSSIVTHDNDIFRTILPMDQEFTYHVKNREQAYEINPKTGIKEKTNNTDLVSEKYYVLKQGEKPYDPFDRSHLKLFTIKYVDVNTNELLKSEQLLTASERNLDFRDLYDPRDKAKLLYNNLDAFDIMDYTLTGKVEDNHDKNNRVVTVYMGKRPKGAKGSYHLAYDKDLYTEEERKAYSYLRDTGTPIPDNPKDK

Caspase-7 = Caspase-7 (Homo sapiens, UniProt P55210); test: procaspase-7 activators, dose response, counter-screen for procaspase-3 activator project, biochemical, absorbance (AID 489013)
Chain of Caspase-7 (P55210 24-198 limits assumed): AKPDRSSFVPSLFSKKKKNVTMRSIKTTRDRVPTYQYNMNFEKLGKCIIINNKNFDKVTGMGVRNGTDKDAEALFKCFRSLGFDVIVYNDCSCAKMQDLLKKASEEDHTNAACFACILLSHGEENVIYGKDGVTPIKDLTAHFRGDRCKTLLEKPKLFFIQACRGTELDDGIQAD
Chain of Caspase-7 (P55210 207-303 limits assumed): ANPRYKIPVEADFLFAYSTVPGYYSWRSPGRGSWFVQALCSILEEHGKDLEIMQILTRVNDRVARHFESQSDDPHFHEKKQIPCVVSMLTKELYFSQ

Chain of Tyrosyl-DNA phosphodiesterase 2 (O95551 whole entry): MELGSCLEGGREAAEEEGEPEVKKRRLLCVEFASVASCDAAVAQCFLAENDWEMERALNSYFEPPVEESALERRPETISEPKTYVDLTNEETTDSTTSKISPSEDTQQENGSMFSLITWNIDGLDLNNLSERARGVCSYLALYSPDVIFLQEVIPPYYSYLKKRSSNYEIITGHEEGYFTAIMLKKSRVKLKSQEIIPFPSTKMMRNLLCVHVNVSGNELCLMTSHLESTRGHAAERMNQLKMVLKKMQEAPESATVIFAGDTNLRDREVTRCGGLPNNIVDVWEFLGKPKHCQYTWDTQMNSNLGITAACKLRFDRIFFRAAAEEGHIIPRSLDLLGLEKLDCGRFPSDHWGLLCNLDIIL

SMILES: CCCCC(=O)NC(c1ccc(Cl)cc1)c1ccc2cccnc2c1O (configuration not stated)
- IC50 [1]: > 80 µM (inactive)

SMILES: COc1ccc2noc3c2c1C(=O)c1ccccc1-3
- EC50 [2]: > 91.2 µM (inactive)
- IC50 (HEK293): > 89.2 µM (inactive)
- EC50 (Insulin-degrading enzyme): > 54.7 µM (inactive)
- IC50 [3]: 65.7 µM (inactive)

SMILES: O=C(N/N=C/c1ccccc1O)/C(O)=C\C1=NC2(CCCC2)Cc2ccccc21
- EC50 (Streptokinase A): > 150 µM (not active)
- EC50 (Caspase-7): > 85.3 µM (inactive)
